The results in this text go back to ChEMBL document CHEMBL5257045, “Antiparasitic Activity of Two Natural Terpenes from Salvia cuspidata against Leishmania amazonensis” (2023).

Several values for one entry are separate records, joined by “and”; a condition that tells them apart may be missing. Equal values may be shown once. Activity calls are given as the source filed them. No cut-off for these calls is given here.

One test relates to Leishmania donovani. Kind of test: Antileishmanial activity against Leishmania donovani MHOM/IN/83/AG83 promastigotes infected in BALB/c mouse assessed as reduction of parasite burden in spleen at 5 to 10 mg/kg per day. Type of test: functional, organism-based. To be noted: dose 5-10 mg/kg.
In test [1] the test system is Leishmania amazonensis. Kind of test: Antileishmanial activity against Leishmania amazonensis promastigotes infected in BALB/c mouse assessed as reduction of IgG level at 1 mg/kg per day administered once a week for 4 weeks measured at 10 week by ELISA assay. The format is functional, organism-based. A general note: An ELISA detects its analyte on a solid surface through an enzyme-linked reagent.

Test [2] deals with Leishmania amazonensis. The experiment in a line: Antileishmanial activity against Leishmania amazonensis MHOM/VE/84/MEL promastigotes assessed as parasite mortality at 14.3 uM measured after 2 day by dye exclusion method (reference value: 11.6 +/- 3.3). The format is functional. Particulars: 48 h.
For test [3], the system named is Leishmania amazonensis. The experiment in a line: Antileishmanial activity against Leishmania amazonensis promastigotes infected in BALB/c mouse assessed as reduction in RHLF lesion size at 1 mg/kg per day administered once a week for 4 weeks measured at 10 week. Type of test: functional, organism-based.
The test system of test [4] is Leishmania amazonensis. The experiment in a line: Antileishmanial activity against Leishmania amazonensis promastigotes infected in BALB/c mouse assessed as reduction of IgG1 level at 1 mg/kg per day administered once a week for 4 weeks measured at 10 week by ELISA assay. Type of test: functional, organism-based.
In test [5] the test system is Leishmania amazonensis. Kind of test: Antileishmanial activity against Leishmania amazonensis MHOM/VE/84/MEL promastigotes assessed as parasite mortality at 4.3 uM measured after 2 day by dye exclusion method (reference value: 11.6 +/- 3.3). The format is functional. Particulars: 48 h.
The test system of test [6] is Leishmania amazonensis. Kind of test: Induction of ROS generation in Leishmania amazonensis promastigotes assessed as reduction in endogenous GSH level at 4.3 to 29.2 uM incubated for 3 hrs by absorbance based analysis. Type of test: functional, organism-based. Particulars: dose 4.3-29.2 µM.
In test [7] the test system is Leishmania amazonensis. The experiment in a line: Antileishmanial activity against Leishmania amazonensis promastigotes infected in BALB/c mouse assessed as reduction of parasite burden at 1 mg/kg per day administered once a week for 4 weeks measured at 10 week by limit dilution assay. Type of test: functional, organism-based.
For test [8], the system named is Leishmania amazonensis. The experiment in a line: Antileishmanial activity against Leishmania amazonensis MHOM/VE/84/MEL promastigotes assessed as parasite mortality at 29.2 uM measured after 2 day by dye exclusion method (reference value: 11.6 +/- 3.3). Type of test: functional. To be noted: 48 h.
The test system of test [9] is Leishmania amazonensis. Kind of test: Antileishmanial activity against Leishmania amazonensis promastigotes infected in BALB/c mouse assessed as reduction of splenic index at 1 mg/kg per day administered once a week for 4 weeks measured at 10 week. The format is functional, organism-based.
Test [10] deals with Leishmania amazonensis. The experiment in a line: Antileishmanial activity against Leishmania amazonensis MHOM/VE/84/MEL promastigotes assessed as parasite mortality at 4.3 uM measured after 1 day by dye exclusion method (reference value: 14.5 +/- 3.5). The format is functional. To be noted: 24 h.
Test [11] has as its system Leishmania amazonensis. The experiment in a line: Induction of ROS generation in Leishmania amazonensis promastigotes assessed as reduction in mitochondrial activity at 4.3 to 29.2 uM incubated for 48 hrs by MTT assay. The format is functional, organism-based. Particulars: dose 4.3-29.2 µM.
In test [12] the test system is Leishmania amazonensis. The experiment in a line: Induction of ROS generation in Leishmania amazonensis promastigotes at 4.3 to 29.2 uM incubated for 48 hrs followed by probe addition measured after 1 hr by H2DCFDA probe based fluorometry analysis. The format is functional, organism-based. Particulars: dose 4.3-29.2 µM, time 49.0 hrs.
In test [13] the test system is Leishmania amazonensis. Kind of test: Antileishmanial activity against Leishmania amazonensis MHOM/VE/84/MEL promastigotes assessed as parasite mortality at 14.3 uM measured after 1 day by dye exclusion method (reference value: 14.5 +/- 3.5). The format is functional. To be noted: 24 h.
Test [14] relates to Leishmania amazonensis. Kind of test: Antileishmanial activity against Leishmania amazonensis MHOM/VE/84/MEL promastigotes assessed as parasite mortality at 29.2 uM measured after 1 day by dye exclusion method (reference value: 14.5 +/- 3.5). Type of test: functional. To be noted: 24 h.
The subject of test [15] is Leishmania amazonensis. Kind of test: Antileishmanial activity against Leishmania amazonensis promastigotes infected in BALB/c mouse assessed as reduction of parasite burden at 400 mg/kg per day, ip administered for 30 days measured at 10 week by limit dilution assay. Particulars: time 30.0 day. The format is functional, organism-based.
For test [16], the system named is Leishmania amazonensis. Kind of test: Antileishmanial activity against Leishmania amazonensis promastigotes infected in BALB/c mouse assessed as reduction of IgG1 level at 400 mg/kg per day, ip administered for 30 days measured at 10 week by ELISA assay. Type of test: functional, organism-based. Particulars: time 30.0 day.
Test [17] relates to Leishmania amazonensis. The experiment in a line: Antileishmanial activity against Leishmania amazonensis promastigotes infected in BALB/c mouse assessed as reduction in RHLF lesion size at 400 mg/kg per day, ip administered for 30 days. Type of test: functional, organism-based. To be noted: time 30.0 day.
Test [18] has as its system Leishmania amazonensis. Kind of test: Antileishmanial activity against Leishmania amazonensis promastigotes infected in BALB/c mouse assessed as wound closure at 400 mg/kg per day, ip administered for 30 days. The format is functional, organism-based. To be noted: time 30.0 day.
The test system of test [19] is Leishmania amazonensis. The experiment in a line: Antileishmanial activity against Leishmania amazonensis promastigotes infected in BALB/c mouse assessed as reduction of splenic index at 400 mg/kg per day, ip administered for 30 days measured at 10 week. Type of test: functional, organism-based. To be noted: time 30.0 day.
The test system of test [20] is Leishmania amazonensis. The experiment in a line: Antileishmanial activity against Leishmania amazonensis promastigotes infected in BALB/c mouse assessed as reduction of IgG level at 400 mg/kg per day, ip administered for 30 days measured at 10 week by ELISA assay. The format is functional, organism-based. Particulars: time 30.0 day.
Test [21] has as its system Leishmania amazonensis. Kind of test: Antileishmanial activity against Leishmania amazonensis MHOM/VE/84/MEL promastigotes assessed as parasite mortality at 38.4 uM measured after 2 day by dye exclusion method (reference value: 11.6 +/- 3.3). Type of test: functional. To be noted: 48 h.
The test system of test [22] is Leishmania amazonensis. The experiment in a line: Antileishmanial activity against Leishmania amazonensis MHOM/VE/84/MEL promastigotes assessed as parasite mortality at 38.4 uM measured after 1 day by dye exclusion method (reference value: 14.5 +/- 3.5). Type of test: functional. To be noted: 24 h.

Regarding `C[C@@H]1CC[C@H]2[C@@H](C)C(=O)O[C@@H]3O[C@@]4(C)CC[C@@H]1[C@]32OO4`, the result in the test with Leishmania donovani was Active.

In general, mortality refers to the share of the test organisms that died. Consider `CC(C)C1=C(O)C(=O)C2=C(C=C[C@H]3[C@]4(CCC[C@]3(C)C(=O)O4)C2)C1=O`, for which the result in the test on Leishmania amazonensis [1], in the test on Leishmania amazonensis [3], with Leishmania amazonensis [4], in the test with Leishmania amazonensis [6], in the test with Leishmania amazonensis [7] and in the test on Leishmania amazonensis [9] was Active. Also, the outcome in the test on Leishmania amazonensis [11] and with Leishmania amazonensis [12] was Active. Moreover, the mortality at 14.3 µM with Leishmania amazonensis [2] is 51.5%; in the test on Leishmania amazonensis [13], 47%. The mortality at 4.3 µM in the test on Leishmania amazonensis [5] was 26.5%. Further, the mortality at 29.2 µM came out at 77.5% in the test on Leishmania amazonensis [8] and 65% in the test on Leishmania amazonensis [14]. The mortality with Leishmania amazonensis [10] was 10% and 26.5%.

For the compound `C[C@@]12CCC[C@]3(COC1=O)CC1=C(C=C[C@@H]32)C(=O)C=C(O)C1=O`, the outcome with Leishmania amazonensis [1], in the test with Leishmania amazonensis [3], in the test with Leishmania amazonensis [4], in the test on Leishmania amazonensis [6], in the test with Leishmania amazonensis [7] and in the test on Leishmania amazonensis [9] was Active. Besides, the outcome in the test with Leishmania amazonensis [11] and in the test with Leishmania amazonensis [12] was Active. For the same compound, the mortality at 14.3 µM with Leishmania amazonensis [2] came to 92%; with Leishmania amazonensis [13], 55%. For the same compound, the mortality at 4.3 µM in the test on Leishmania amazonensis [5] stood at 87.5%. The mortality at 29.2 µM stood at 98.5% with Leishmania amazonensis [8] and 96.5% with Leishmania amazonensis [14]. In addition, the mortality with Leishmania amazonensis [10] is 33.5% and 87.5%.

For the compound MEGLUMINE ANTIMONATE, the result in the test on Leishmania amazonensis [15], with Leishmania amazonensis [16], in the test with Leishmania amazonensis [17], in the test on Leishmania amazonensis [19] and in the test on Leishmania amazonensis [20] was Active. The outcome in the test on Leishmania amazonensis [18] was inactive.

As to `CC(=O)N1CCN(c2ccc(OCC3COC(Cn4ccnc4)(c4ccc(Cl)cc4Cl)O3)cc2)CC1` (configuration not stated) [KETOCONAZOLE], the mortality at 38.4 µM in the test on Leishmania amazonensis [21] was 79.4%; in the test on Leishmania amazonensis [22], 48.5%.
